Measurements published in US20250313563A1, “GLYCOGEN SYNTHASE KINASE 3 INHIBITORS AND USES THEREOF” (The Broad Institute, Inc., priority 2022, published 2025).
Like-named read-outs stand apart in the source and are kept apart here.

Assays:
[1] = biological target: GSK3b (GST-full length GSK3b) (Homo sapiens (Human), UniProt P49841); experiment: GSK3b TR-FRET kinase assay; assay type: biochemical
In short: (§1)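 Compound was preincubated 30 min with 1 nM GST-GSK3 enzyme. Reaction ran 100 min at ambient temperature in Tris pH 7.5/MgCl2 with 200 nM biotinylated pS645-glycogen synthase 631-650 peptide and ATP (4 μM GSK3α, 2 μM GSK3b, or 1 mM). The EDTA-stopped reaction was read by TR-FRET (Tb-anti-pSer641/streptavidin-d2), and IC50s were fitted.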

[2] = biological target: GSK3α (GST-full length GSK3α) (Homo sapiens (Human), UniProt P49840); experiment: GSK3α TR-FRET kinase assay; assay type: biochemical
In short: as §1

[3] = 1 nM GSK3b, 2 μM ATP, 30 minute preincubation, Table 16, read-out: GSK3-B TR-FRET BIOCHEMICAL (TR-FRET), IC50
[4] = 1 nM GSK3α, 4 μM ATP, 30 minute preincubation, Table 16, read-out: GSK3-A TR-FRET BIOCHEMICAL (TR-FRET), IC50
[5] = read-out: GSK3-B (TR-FRET 1 mM ATP), GMean, IC50, 1 mM ATP, geometric mean
[6] = read-out: GSK3-A (TR-FRET 1 mM ATP), GMean, IC50, 1 mM ATP, geometric mean
[7] = 1 nM GSK3b, 2 μM ATP, 30 minute preincubation, Table 16, read-out: GSK3-B TR-FRET BIOCHEMICAL (TR-FRET)
[8] = 1 nM GSK3α, 4 μM ATP, 30 minute preincubation, Table 16, read-out: GSK3-A TR-FRET BIOCHEMICAL (TR-FRET)

Chain of GSK3b (GST-full length GSK3b) (P49841 whole entry): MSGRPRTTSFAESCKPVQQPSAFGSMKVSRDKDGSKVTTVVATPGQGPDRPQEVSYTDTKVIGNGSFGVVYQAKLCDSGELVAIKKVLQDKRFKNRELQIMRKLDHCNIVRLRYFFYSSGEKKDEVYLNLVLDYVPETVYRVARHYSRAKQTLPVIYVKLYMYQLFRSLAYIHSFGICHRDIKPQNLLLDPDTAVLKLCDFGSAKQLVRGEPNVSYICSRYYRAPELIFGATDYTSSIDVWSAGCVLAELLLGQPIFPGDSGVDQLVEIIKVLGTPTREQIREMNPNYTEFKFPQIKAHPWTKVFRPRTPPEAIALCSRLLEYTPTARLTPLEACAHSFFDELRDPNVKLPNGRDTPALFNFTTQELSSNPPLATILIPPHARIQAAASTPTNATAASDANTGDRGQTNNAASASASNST
Chain of GSK3α (GST-full length GSK3α) (P49840 whole entry): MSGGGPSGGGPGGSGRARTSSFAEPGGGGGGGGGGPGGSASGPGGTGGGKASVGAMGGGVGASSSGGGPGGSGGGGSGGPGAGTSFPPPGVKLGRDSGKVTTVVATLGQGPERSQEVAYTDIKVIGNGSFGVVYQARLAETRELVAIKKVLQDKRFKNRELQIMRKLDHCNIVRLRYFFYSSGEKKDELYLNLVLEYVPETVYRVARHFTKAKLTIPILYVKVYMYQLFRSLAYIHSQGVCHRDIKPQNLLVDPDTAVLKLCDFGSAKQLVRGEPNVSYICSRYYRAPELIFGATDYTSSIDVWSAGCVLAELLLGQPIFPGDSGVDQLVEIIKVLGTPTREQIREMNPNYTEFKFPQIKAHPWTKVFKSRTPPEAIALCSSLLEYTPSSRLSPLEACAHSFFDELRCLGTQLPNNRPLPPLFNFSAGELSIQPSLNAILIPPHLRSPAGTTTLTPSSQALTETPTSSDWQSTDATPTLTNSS

IC50 [1, 3] [nM]	IC50 [2, 4] [nM]	Compound	other results
100 to 1000	100 to 1000	CCC1(c2cccc(C(F)(F)F)c2)C2=C(CCC2=O)Nc2n[nH]cc21 (stereo not shown) [Compound 949639]	–
> 5000	> 5000	CCC1(c2cccc(C(F)(F)F)c2)C2=C(CCN(c3cn(C)nc3C)C2=O)Nc2n[nH]cc21 (stereo not shown) [Compound 949641]	–
> 5000	> 5000	CC[C@]1(c2cccc(-c3ccncc3F)c2)C2=C(CC(C)(C)NC2=O)Nc2n[nH]c(F)c21 [Compound 949643]	–
1000 to 5000	100 to 1000	CC[C@]1(c2cccc(-c3cc(C)ncc3F)c2)C2=C(CC(C)(C)NC2=O)Nc2n[nH]c(C(F)(F)F)c21 [Compound 949644]	–
> 5000	> 5000	CC[C@@]1(c2cccc(C(C)C)c2)C2=C(CC(C)(C)NC2=O)Nc2n[nH]c(C)c21 [Compound 949646]	–
≤ 100	≤ 100	CC[C@@]1(c2cccc(N(C)c3ncccn3)c2)C2=C(CC(C)(C)NC2=O)Nc2n[nH]c(F)c21 [Compound 949648]	IC50 [1, 5]: 1000 to 5000 nM; IC50 [2, 6]: ≤ 100 nM
≤ 100	≤ 100	CC[C@]1(c2cccc(C(C)C)c2)C2=C(CC(C)(C)NC2=O)Nc2n[nH]c(C)c21 [Compound 949649]	IC50 [1, 5]: 1000 to 5000 nM; IC50 [2, 6]: 100 to 1000 nM
≤ 100	≤ 100	CC[C@@]1(c2cccc(-c3cc(C)ncc3F)c2)C2=C(CC(C)(C)NC2=O)Nc2n[nH]c(C(F)(F)F)c21 [Compound 949650]	IC50 [1, 5]: 1000 to 5000 nM; IC50 [2, 6]: 100 to 1000 nM
≤ 100	≤ 100	CCC1(c2cccc(-c3ccncc3F)c2)C2=C(CC(C)(C)NC2=O)Nc2n[nH]c(F)c21 (stereo not shown) [Compound 949651]	IC50 [1, 5]: > 5000 nM; IC50 [2, 6]: 100 to 1000 nM
100 to 1000	100 to 1000	CC[C@@]1(c2cccc(C(F)(F)F)c2)C2=C(Nc3n[nH]cc31)c1ccccc1C2=O [Compound 949742]	–
≤ 100	≤ 100	CC[C@]1(c2cccc(C(F)(F)F)c2)C2=C(Nc3n[nH]cc31)c1ccccc1C2=O [Compound 949743]	IC50 ([1]; GSK3-B (TR-FRET 1 mM ATP), GMean, IC50, 1 mM ATP, geometric mean): 100 to 1000 nM; IC50 ([2]; GSK3-A (TR-FRET 1 mM ATP), GMean, IC50, 1 mM ATP, geometric mean): ≤ 100 nM
≤ 100	≤ 100	CCC1(c2cccc(C(C)C)c2)C2=C(CC(C)(C)NC2=O)Nc2n[nH]c(C(F)(F)F)c21 (stereo not shown) [Compound 949747]	–
100 to 1000	≤ 100	CCC1(c2cccc(OC)c2)C2=C(CC(C)(C)NC2=O)Nc2n[nH]c(C(F)(F)F)c21 (stereo not shown) [Compound 949748]	–
> 5000	> 5000	CC[C@]1(c2cccc(C(C)C)c2)C2=C(CC(C)(C)NC2=O)Nc2n[nH]cc21 [Compound 949752]	–

Continued, compound first:

Compound	IC50 [1, 3] [nM]	IC50 [2, 4] [nM]	other results
CC[C@]1(c2cccc(Oc3ncccn3)c2)C2=C(CC(C)(C)NC2=O)Nc2n[nH]cc21 [Compound 949330]	100 to 1000	≤ 100	–
CC[C@@]1(c2cccc(-c3cc(C)nnc3C)c2)C2=C(CC(C)(C)NC2=O)Nc2n[nH]cc21 [Compound 949334]	> 5000	1000 to 5000	–
CC[C@@]1(c2cccc(Oc3ncccn3)c2)C2=C(CC(C)(C)NC2=O)Nc2n[nH]cc21 [Compound 949335]	> 5000	> 5000	–
CCC1(c2cccc(-c3cn(C)nc3C)c2)C2=C(CC(C)(C)NC2=O)Nc2n[nH]c(Cl)c21 (stereo not shown) [Compound 949336]	≤ 100	≤ 100	IC50 [1, 5]: 100 to 1000 nM; IC50 [2, 6]: ≤ 100 nM
CC[C@@]1(c2cccc(OC)c2)C2=C(CC(C)(C)NC2=O)Nc2n[nH]c(C)c21 [Compound 949337]	1000 to 5000	100 to 1000	–
CCC1(c2cccc(C(F)(F)F)c2)C2=C(CC(C)N(c3cnc(OC)nc3)C2=O)Nc2n[nH]cc21 (stereo not shown) [Compound 949351]	100 to 1000	≤ 100	–
CCC1(c2cccc(C(F)(F)F)c2)C2=C(CC(C)N(c3cnc(OC)nc3)C2=O)Nc2n[nH]cc21 (stereo not shown) [Compound 949352]	≤ 100	≤ 100	IC50 [1, 5]: 1000 to 5000 nM; IC50 [2, 6]: 100 to 1000 nM
CC[C@@]1(c2cccc(C(F)(F)F)c2)C2=C(C[C@H](C)N(c3cnc(OC)nc3)C2=O)Nc2n[nH]cc21 [Compound 949354]	1000 to 5000	100 to 1000	–
CC[C@@]1(c2cccc(-c3ccnc(C(F)F)c3)c2)C2=C(CC(C)(C)NC2=O)Nc2n[nH]cc21 [Compound 949388]	> 5000	1000 to 5000	–
CCC1(c2cccc(-c3cnn4cccnc34)c2)C2=C(CC(C)(C)NC2=O)Nc2n[nH]cc21 (stereo not shown) [Compound 949389]	> 5000	1000 to 5000	–
CCc1cccc(C2(CC)C3=C(CC(C)(C)CC3=O)Nc3n[nH]cc32)c1 (stereo not shown) [Compound 949391]	–	–	IC50 [1, 7]: > 5000 nM; IC50 [2, 8]: 1000 to 5000 nM
CC[C@@]1(c2cccc(-c3c(C)ccc4c(C)cccc34)c2)C2=C(CC(C)(C)NC2=O)Nc2n[nH]c(F)c21 [Compound 949392]	> 5000	1000 to 5000	–
CCC1(c2cccc(-c3cnn(C4CC4(F)F)c3)c2)C2=C(CC(C)(C)NC2=O)Nc2n[nH]cc21 (stereo not shown) [Compound 949393]	> 5000	1000 to 5000	–
CC[C@]1(c2cccc(-c3ccnn3C)c2)C2=C(CC3(CCS(=O)(=O)CC3)NC2=O)Nc2n[nH]cc21 [Compound 949394]	100 to 1000	≤ 100	–
CCC1(c2cccc(-c3cnn(C)c3F)c2)C2=C(CC(C)(C)NC2=O)Nc2n[nH]cc21 (stereo not shown) [Compound 949395]	> 5000	1000 to 5000	–
CC[C@@]1(c2cccc(-c3ccnn3-c3ccc(F)cc3)c2)C2=C(CC(C)(C)NC2=O)Nc2n[nH]cc21 [Compound 949396]	> 5000	> 5000	–
CCC1(c2cccc(C3CCCC3)c2)C2=C(CC(C)(C)CC2=O)Nc2n[nH]cc21 (stereo not shown) [Compound 949397]	–	–	IC50 [1, 5]: 1000 to 5000 nM; IC50 [2, 6]: 100 to 1000 nM
CCC1(c2cccc(-c3c(C)cnc4ccccc34)c2)C2=C(CC(C)(C)NC2=O)Nc2n[nH]cc21 (stereo not shown) [Compound 949398]	100 to 1000	≤ 100	–

Compound	IC50 [1, 3] [nM]	IC50 [2, 4] [nM]	other results
CC[C@]1(c2cccc(C3CCCC3)c2)C2=C(CC(C)(C)CC2=O)Nc2n[nH]cc21 [Compound 949399]	> 5000	1000 to 5000	–
CC[C@@]1(c2cccc(-c3ccnn3C)c2)C2=C(CC3(CCS(=O)(=O)CC3)NC2=O)Nc2n[nH]cc21 [Compound 949400]	> 5000	1000 to 5000	–
CC[C@]1(c2cccc(-c3ccnc(C)c3)c2)C2=C(CC(C)(C)NC2=O)Nc2n[nH]c(Cl)c21 [Compound 949421]	> 5000	100 to 1000	–
CC[C@@]1(c2cccc(-c3ccnc(C)c3)c2)C2=C(CC(C)(C)NC2=O)Nc2n[nH]c(Cl)c21 [Compound 949422]	≤ 100	≤ 100	IC50 [1, 5]: 1000 to 5000 nM; IC50 [2, 6]: 100 to 1000 nM
CC[C@@]1(c2cccc(-c3cc(C4CCCC4)nn3C)c2)C2=C(CC(C)(C)NC2=O)Nc2n[nH]cc21 [Compound 949509]	> 5000	> 5000	–
CC[C@@]1(c2cccc(-c3cnn(CCN4CCCC4)c3)c2)C2=C(CC(C)(C)NC2=O)Nc2n[nH]cc21 [Compound 949510]	> 5000	> 5000	–
CC[C@@]1(c2cccc(-c3cnn(Cc4ccc(C(F)(F)F)cc4)c3)c2)C2=C(CC(C)(C)NC2=O)Nc2n[nH]cc21 [Compound 949511]	> 5000	> 5000	–
CC[C@@]1(c2cccc(-c3cnn(Cc4cccc(C(F)(F)F)c4)c3)c2)C2=C(CC(C)(C)NC2=O)Nc2n[nH]cc21 [Compound 949513]	> 5000	> 5000	–
CCC1(c2cccc(C3CCC3)c2)C2=C(CC(C)(C)CC2=O)Nc2n[nH]cc21 (stereo not shown) [Compound 949514]	> 5000	1000 to 5000	–
CC[C@@]1(c2cccc(-c3cnn(-c4cccnc4)c3)c2)C2=C(CC(C)(C)NC2=O)Nc2n[nH]cc21 [Compound 949515]	> 5000	> 5000	–
CC[C@@]1(c2cccc(-c3ccncc3C(F)(F)F)c2)C2=C(CC(C)(C)NC2=O)Nc2n[nH]cc21 [Compound 949516]	> 5000	1000 to 5000	–
CC[C@@]1(c2cccc(-c3ccnn3C3CC3(F)F)c2)C2=C(CC(C)(C)NC2=O)Nc2n[nH]cc21 (stereo partly shown) [Compound 949518]	> 5000	100 to 1000	–
CC[C@@]1(c2cccc(-c3cnn(-c4ccccc4)c3F)c2)C2=C(CC(C)(C)NC2=O)Nc2n[nH]cc21 [Compound 949519]	> 5000	> 5000	–
CC[C@]1(c2cccc(-c3ccnc(C)c3)c2)C2=C(CC3(CCC3)NC2=O)Nc2n[nH]cc21 [Compound 949520]	100 to 1000	≤ 100	–
CC[C@@]1(c2cccc(C3CCC3)c2)C2=C(CC(C)(C)CC2=O)Nc2n[nH]cc21 [Compound 949521]	≤ 100	≤ 100	IC50 [1, 5]: 1000 to 5000 nM; IC50 [2, 6]: 100 to 1000 nM
CC[C@@]1(c2cccc(C(F)(F)F)c2)C2=C(CCN(CCOC)C2=O)Nc2n[nH]cc21 [Compound 949599]	100 to 1000	100 to 1000	–
CC[C@]1(c2cccc(C(F)(F)F)c2)C2=C(CCN(CCOC)C2=O)Nc2n[nH]cc21 [Compound 949600]	> 5000	> 5000	–
CC1CCC12C1=C(CC(C)(C)CC1=O)Nc1n[nH]cc12 (stereo not shown) [Compound 949640]	–	–	IC50 [1, 7]: 1000 to 5000 nM; IC50 [2, 8]: 100 to 1000 nM
